# Source: paper PMC5039532, “Design and Synthesis of Analogues of Marine Natural Product Galaxamide, an N-methylated Cyclic Pentapeptide, as Potential Anti-Tumor Agent in Vitro” (Marine Drugs, 2016)
# Read-outs that look alike come from different tables or passages of the source.
# Experiments:
# [1] = amide bond, 15-membered ring, PyBOP/DIEA, DCM, 0.7 mM, 25.0 °C
# [2] = tested on: hepatocellular carcinoma SMMC-7721 cells; format: cell-based, human; conditions: for IC50 Value SMMC-7721: 48 h
# Method: (§1) Lung cancer A549, drug-resistant lung cancer A549-DPP, human hepatocellular carcinoma HepG2 and hepatocellular carcinoma SMMC-7721 cells obtained from the China cell bank of the Institute of Biochemistry and were cultured in DMEM culture medium (DMEM, Corning, NY, USA) containing 10% fetal bovine serum (FBS, Hyclone, Logan, UT, USA), 1% penicillin-streptomycin and an antifungal agent in a 5% CO2 humidified atmosphere at 37 °C. The culture medium was replaced once in a day. Trypsin digestion method was adopted for cell propagation. Upon reaching 80%–90% confluence, the cells were rinsed twice with PBS. A certain amount of 0.25% trypsin digestion solution was then added and maintained for 3–5 min at 37 °C. Afterward, DMEM culture medium containing 10% fetal bovine serum was added to terminate the digestion. The cells were then blown well to form single cell suspensions.
# (§2) The cell viability was determined by measuring the ability of cells to transform MTT (Genview, Houston, TX, USA) to a purple formazan dye. The cells were seeded in 96-well tissue culture plates at 2.5 × 10^3 cells/well for 24 h. The cells were then incubated with galaxamide and its analogues for 48 h. After incubation, 20 μL/well of MTT solution (5 mg/mL phosphate buffered saline) were added and incubated for 5 h. The medium was aspirated and replaced with 100 μL/well of DMSO to dissolve the formazan salt. The color intensity of the formazan solution, which reflects the cell growth condition, was measured at 570 nm using a microplate spectrophotometer (SpectroAma™ 250, Winooski, VT, USA).
# [3] = tested on: drug-resistant lung cancer cell line A549/DPP; format: cell-based, human; conditions: 48 h
# Method: as §1, §2
# [4] = tested on: Lung cancer cell line A549; format: cell-based, human; conditions: 48 h
# Method: as §1, §2
# [5] = tested on: human hepatocellular carcinoma HepG2; format: cell-based; conditions: 48 h
# Method: as §1, §2
# [6] = ratio of IC50 values, MTT assay
SMILES,IC50 Value SMMC-7721 [2] [µg/mL],IC50 Value A549-DPP [3] [µg/mL],IC50 Value A549 [4] [µg/mL],IC50 Value HepG2 [5] [µg/mL],other results
CC(C)C[C@H]1NC(=O)[C@H](Cc2ccccc2)NC(=O)[C@H](CC(C)C)N(C)C(=O)[C@@H](CC(C)C)NC(=O)[C@@H](CC(C)C)NC1=O [cyclo(Phe-D-Leu-D-Leu-D-Leu-N-Me-Leu)],–,–,–,–,"ring closure, yield after HPLC ([1]; from H-Phe-dLeu-dLeu-dLeu-MeLeu-OH?): 55.1%"
"CC(C)C[C@H]1NC(=O)[C@H](Cc2ccccc2)NC(=O)[C@H](CC(C)C)N(C)C(=O)[C@@H](CC(C)C)NC(=O)[C@@H](CC(C)C)NC1=O [Compound 21, cyclo(Phe-D-Leu-D-Leu-D-Leu-N-Me-Leu)]",8.21,18.6,6.47,15.3,–
CC(C)C[C@@H]1NC(=O)[C@@H](Cc2ccccc2)NC(=O)[C@@H](CC(C)C)NC(=O)[C@@H](CC(C)C)NC(=O)[C@H](CC(C)C)N(C)C1=O [cyclo(D-Phe-Leu-N-Me-Leu-D-Leu-D-Leu)],–,–,–,–,"ring closure, yield after HPLC ([1]; from H-dPhe-Leu-MeLeu-dLeu-dLeu-OH?): 61.5%"
CC(C)C[C@@H]1NC(=O)[C@H](Cc2ccccc2)NC(=O)[C@@H](CC(C)C)NC(=O)[C@@H](CC(C)C)NC(=O)[C@@H](CC(C)C)N(C)C1=O [cyclo(Phe-Leu-D-N-Me-Leu-D-Leu-D-Leu)],–,–,–,–,"ring closure, yield after HPLC ([1]; from H-Phe-Leu-dMeLeu-dLeu-dLeu-OH?): 51.7%"
"CC(C)C[C@@H]1NC(=O)[C@H](Cc2ccccc2)NC(=O)[C@@H](CC(C)C)N(C)C(=O)[C@H](CC(C)C)NC(=O)[C@H](CC(C)C)NC1=O [Compound 24, cyclo(Phe-Leu-Leu-Leu-D-N-Me-Leu)]",7.04,9.26,3.45,7.92,–
CC(C)C[C@@H]1NC(=O)[C@@H](Cc2ccccc2)NC(=O)[C@H](CC(C)C)N(C)C(=O)[C@H](CC(C)C)NC(=O)[C@@H](CC(C)C)NC1=O [cyclo(D-Phe-Leu-D-Leu-Leu-N-Me-Leu)],–,–,–,–,"ring closure, yield after HPLC ([1]; from H-dPhe-Leu-dLeu-Leu-MeLeu-OH?): 48.5%"
"CC(C)C[C@H]1NC(=O)[C@@H](CC(C)C)NC(=O)[C@H](CC(C)C)N(C)C(=O)[C@@H](CC(C)C)NC(=O)[C@H](Cc2ccccc2)NC1=O [Compound 1, cyclo(Phe-D-Leu-N-Me-Leu-D-Leu-D-Leu)]",1.25,27.2,8.74,12.15,"anti-tumor activity towards SMMC-7721, fold higher than galaxamide [2, 6]: 9 fold; anti-tumor activity towards SMMC-7721, fold higher than reference DPP (cisplatin) [2, 6]: 10 fold"
CC(C)C[C@@H]1NC(=O)[C@H](CC(C)C)N(C)C(=O)[C@H](CC(C)C)NC(=O)[C@@H](CC(C)C)N(C)C(=O)[C@@H](Cc2ccccc2)NC1=O [cyclo(D-Phe-D-N-Me-Leu-Leu-N-Me-Leu-Leu)],–,–,–,–,"ring closure, yield after HPLC ([1]; from H-dPhe-dMeLeu-Leu-MeLeu-Leu-OH?): 45.5%"
"CC(C)C[C@@H]1NC(=O)[C@H](CC(C)C)N(C)C(=O)[C@@H](Cc2ccccc2)NC(=O)[C@@H](CC(C)C)N(C)C(=O)[C@H](CC(C)C)NC1=O [Compound 26, cyclo(D-Phe-N-Me-Leu-Leu-Leu-D-N-Me-Leu)]",6.65,11.33,4.27,7.12,–
CC(C)C[C@H]1NC(=O)[C@@H](Cc2ccccc2)NC(=O)[C@H](CC(C)C)N(C)C(=O)[C@@H](CC(C)C)NC(=O)[C@H](CC(C)C)N(C)C1=O [cyclo(D-Phe-D-Leu-N-Me-Leu-D-Leu-N-Me-Leu)],–,–,–,–,"ring closure, yield after HPLC ([1]; from H-dPhe-dLeu-MeLeu-dLeu-MeLeu-OH?): 53.9%"
CC(C)C[C@@H]1NC(=O)[C@@H](Cc2ccccc2)NC(=O)[C@@H](CC(C)C)N(C)C(=O)[C@@H](CC(C)C)NC(=O)[C@@H](CC(C)C)NC1=O [cyclo(D-Phe-Leu-D-Leu-D-Leu-D-N-Me-Leu)],–,–,–,–,"ring closure, yield after HPLC ([1]; from H-dPhe-Leu-dLeu-dLeu-dMeLeu-OH?): 50%"
"CC(C)C[C@@H]1NC(=O)[C@@H](CC(C)C)N(C)C(=O)[C@H](CC(C)C)NC(=O)[C@@H](Cc2ccccc2)NC(=O)[C@@H](CC(C)C)NC1=O [Compound 4, cyclo(D-Phe-Leu-D-N-Me-Leu-Leu-D-Leu)]",1.53,19.71,8.89,16.58,–
CC(C)C[C@@H]1NC(=O)[C@H](CC(C)C)N(C)C(=O)[C@@H](Cc2ccccc2)NC(=O)[C@@H](CC(C)C)N(C)C(=O)[C@H](CC(C)C)NC1=O [cyclo(D-Phe-N-Me-Leu-Leu-Leu-D-N-Me-Leu)],–,–,–,–,"ring closure, yield after HPLC ([1]; from H-dPhe-MeLeu-Leu-Leu-dMeLeu-OH?): 45.1%"
"CC(C)C[C@H]1NC(=O)[C@@H](Cc2ccccc2)NC(=O)[C@H](CC(C)C)N(C)C(=O)[C@@H](CC(C)C)NC(=O)[C@H](CC(C)C)N(C)C1=O [Compound 5, cyclo(D-Phe-D-Leu-N-Me-Leu-D-Leu-N-Me-Leu)]",2.74,23.61,6.89,5.23,–
CC(C)C[C@@H]1NC(=O)[C@@H](CC(C)C)N(C)C(=O)[C@H](CC(C)C)NC(=O)[C@@H](Cc2ccccc2)NC(=O)[C@@H](CC(C)C)NC1=O [cyclo(D-Phe-Leu-D-N-Me-Leu-Leu-D-Leu)],–,–,–,–,"ring closure, yield after HPLC ([1]; from H-dPhe-Leu-dMeLeu-Leu-dLeu-OH?): 53.8%"
"CC(C)C[C@@H]1NC(=O)[C@H](Cc2ccccc2)NC(=O)[C@H](CC(C)C)N(C)C(=O)[C@@H](CC(C)C)NC(=O)[C@H](CC(C)C)NC1=O [Compound 20, cyclo(Phe-Leu-Leu-D-Leu-N-Me-Leu)]",3.35,16.15,7.41,9.68,–
"CC(C)C[C@@H]1NC(=O)[C@H](CC(C)C)N(C)C(=O)[C@H](CC(C)C)NC(=O)[C@@H](CC(C)C)N(C)C(=O)[C@@H](Cc2ccccc2)NC1=O [Compound 19, cyclo(D-Phe-D-N-Me-Leu-Leu-N-Me-Leu-Leu)]",2.7,17.73,5.21,4.25,–
"CC(C)C[C@@H]1NC(=O)[C@@H](Cc2ccccc2)NC(=O)[C@@H](CC(C)C)NC(=O)[C@@H](CC(C)C)NC(=O)[C@H](CC(C)C)N(C)C1=O [Compound 2, cyclo(D-Phe-Leu-N-Me-Leu-D-Leu-D-Leu)]",5.48,15.01,5.27,7.76,–
CC(C)C[C@@H]1NC(=O)[C@H](Cc2ccccc2)NC(=O)[C@H](CC(C)C)N(C)C(=O)[C@@H](CC(C)C)NC(=O)[C@H](CC(C)C)NC1=O [cyclo(Phe-Leu-Leu-D-Leu-N-Me-Leu)],–,–,–,–,"ring closure, yield after HPLC ([1]; from H-Phe-Leu-Leu-dLeu-MeLeu-OH?): 46.1%"
"CC(C)C[C@@H]1NC(=O)[C@@H](Cc2ccccc2)NC(=O)[C@@H](CC(C)C)N(C)C(=O)[C@@H](CC(C)C)NC(=O)[C@@H](CC(C)C)NC1=O [Compound 25, cyclo(D-Phe-Leu-D-Leu-D-Leu-D-N-Me-Leu)]",6.85,20.43,5.18,22.88,–
CC(C)C[C@H]1NC(=O)[C@@H](CC(C)C)NC(=O)[C@H](CC(C)C)N(C)C(=O)[C@@H](CC(C)C)NC(=O)[C@H](Cc2ccccc2)NC1=O [cyclo(Phe-D-Leu-N-Me-Leu-D-Leu-D-Leu)],–,–,–,–,"ring closure, yield after HPLC ([1]; from H-Phe-dLeu-MeLeu-dLeu-dLeu-OH?): 57.3%"
CC(C)C[C@@H]1NC(=O)[C@H](Cc2ccccc2)NC(=O)[C@@H](CC(C)C)N(C)C(=O)[C@H](CC(C)C)NC(=O)[C@H](CC(C)C)NC1=O [cyclo(Phe-Leu-Leu-Leu-D-N-Me-Leu)],–,–,–,–,"ring closure, yield after HPLC ([1]; from H-Phe-Leu-Leu-Leu-dMeLeu-OH?): 66.4%"
CC(C)C[C@@H]1NC(=O)[C@H](CC(C)C)NC(=O)[C@@H](Cc2ccccc2)NC(=O)[C@H](CC(C)C)N(C)C(=O)[C@@H](CC(C)C)NC1=O [cyclo(D-Phe-Leu-Leu-D-Leu-N-Me-Leu)],–,–,–,–,"ring closure, yield after HPLC ([1]; from H-dPhe-Leu-Leu-dLeu-MeLeu-OH?): 65.4%"
